Source: BindingDB's records for doi:10.1110/ps.03533004 (University of Copenhagen, 2004)

Key:
[1] = biological target: Dihydroorotate dehydrogenase (quinone), mitochondrial (Rattus norvegicus, UniProt Q63707); test: Enzyme Inhibition Assay; conditions: pH 8; 30 °C
[2] = biological target: T1, Dihydroorotate dehydrogenase (quinone), mitochondrial [30-395] (Rattus norvegicus, UniProt Q63707); test: Enzyme Inhibition Assay; conditions: pH 8; 30 °C
T1 construct: 30-395
T1 sequence (Q63707 30-395): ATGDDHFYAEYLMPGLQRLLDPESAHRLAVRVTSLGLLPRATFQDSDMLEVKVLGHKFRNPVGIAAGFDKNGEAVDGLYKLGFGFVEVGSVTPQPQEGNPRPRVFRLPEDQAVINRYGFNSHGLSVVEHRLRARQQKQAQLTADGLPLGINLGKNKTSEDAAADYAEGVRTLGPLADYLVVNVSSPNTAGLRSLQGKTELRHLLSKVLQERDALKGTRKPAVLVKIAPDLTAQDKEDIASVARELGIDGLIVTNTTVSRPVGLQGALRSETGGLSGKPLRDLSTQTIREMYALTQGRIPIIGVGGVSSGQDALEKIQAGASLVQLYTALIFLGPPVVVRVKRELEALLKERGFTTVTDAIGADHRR

Chain of Dihydroorotate dehydrogenase (quinone), mitochondrial (Q63707 whole entry): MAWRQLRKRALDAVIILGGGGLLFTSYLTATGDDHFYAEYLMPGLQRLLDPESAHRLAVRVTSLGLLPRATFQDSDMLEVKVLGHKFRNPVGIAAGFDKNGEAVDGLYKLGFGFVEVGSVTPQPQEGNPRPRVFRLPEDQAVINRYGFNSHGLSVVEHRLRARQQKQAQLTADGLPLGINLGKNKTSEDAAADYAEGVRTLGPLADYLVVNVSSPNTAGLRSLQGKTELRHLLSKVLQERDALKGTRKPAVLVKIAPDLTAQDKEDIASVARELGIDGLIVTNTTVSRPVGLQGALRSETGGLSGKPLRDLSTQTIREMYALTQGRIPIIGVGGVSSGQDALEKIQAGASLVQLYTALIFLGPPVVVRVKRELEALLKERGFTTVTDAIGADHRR

- IC50 [1]: 698 nM
- IC50 [2]: 904 nM
SMILES: O=C1C(=O)C(C2CCC(c3ccc(Cl)cc3)CC2)C(=O)c2ccccc21 (configuration not stated) [Mepron]
